This is an account of results in US20080312162A1, “Methods and Compositions for Enzyme-Specific Activation of Carbohydrate-Conjugated Prodrugs” (THE OHIO STATE UNIVERSITY, priority 2004, published 2008).

Structures are written as SMILES. Where “and” joins values, the source holds several entries; their conditions need not be identical. Identical values can stand only once. Entries after “also recorded” stand apart in the source; their conditions may differ. Where only a bound is given, the exact number is not on record here.

What all share (type): cell-based, human
The test system of experiment [1] is K562. Briefly: Beta-glucosidase inhibition assay (DMDP) in K562 cell line. Particulars: for Cell growth relative to untreated cells: higher concentration (0.4 μM). The source says:
Similar results showing preferential activation of glucose conjugates relative to galactose or lactose conjugates were obtained in other cancer cell lines. The glucose-conjugated compound is apparently cleaved by native glucosidase inside of the cancer cells resulting in release of a biologically active anti-cytostatic compound. The cleavage of glucose conjugates by an enzymatic pathway to release an active drug is shown by a beta-glucosidase inhibition assay. FIG. 5 is a graph showing the results of a beta-glucosidase inhibition assay studied in K562 cell line. Two different concentrations of prodrug were tested in this experiment. For compound 24, 17-demethoxy-17-[(2-β-glucopyranosylethyl)amino]geldanamycin], the higher concentration is 0.4 μM and the lower concentration is 0.2 μM. […] Percentages of cell growth were calculated compared to control cells in the absence of beta-glucosidase inhibitor and prodrug solution. Each bar represents the average of three experiments. […] While the higher concentration of compound 24 limits cells growth to about 20% of untreated cells, when the beta-glucosidase inhibitor DMDP is added, the high concentration of compound 24 only reduces growth to about 60% that of untreated cells.
Beta-glucosidase Inhibition assay. To verify if the cleavage of sugar moieties from compound 24 is crucial for the anticancer activity, we performed the β-glucosidase inhibition study in K562 cell line. The K562 cells were treated with β-glucosidase inhibitor 2, 5-dihydroxymethyl-3,4-dihydroxypyrrolidine (DMDP) solution (100 μM) for 10 minutes before adding carbohydrate-geldanamycin conjugates. The concentrations of glucose-GA were 0.4 μM and 0.2 μM, respectively. […] From the structures of compounds 24 and 25, the only difference between these two compounds is the sugar moiety, which is glucose in compound 24 and galactose in compound 25.
Beta-Glucosidase inhibition assay for compound 2425. […] The exponentially growing cancer cells were incubated in three different conditions (cells with different concentration of test compounds and DMDP, cells with different concentration of test compounds only, and cell with DMDP only) for 72 hours at 37° C. (5% CO2, 100% humidity). The control cells were exposed to fresh medium only. Then, the anticancer activities of compound 24, 25 were measured with MTS assay as described above. The percentages of cell growth for tested compounds vs. control cells were calculated by the absorbance at 490 nm.

The next experiment has as its system MCF7. Briefly: Anticancer activity (MTS assay) in MCF7 cells. The following applies: 72 hours. Here is the method:
(§1) The anticancer activities of six prodrug conjugates synthesized by the method were tested for anticytostatic activity by using the MTS assay to show suppression of cell growth. Four different human cell lines, including colorectal carcinoma cells (SW620, HT 29), breast cancer cells (MCF7), and leukemia cells (K562), were tested using the MTS assay. Each compound was tested at concentration 1-25,000 nM. GA also was tested for comparison. The inhibition of cell growth was calculated compared to control cells without drug treatment. For purposes of this description of in vitro cell culture testing, drug concentrations are given for the molar concentrations of the chemotherapeutic agents present in the media at the initiation of the test. Skilled artisans are aware of the various conversion factors necessary to convert media concentrations to tissue concentration targets and the dose necessary to achieve such a dose.
(§2) Cell Culture. Cell lines SW620, HT29, MCF7, and K562 were cultured in RPMI 1640 (Invitrogen, Carlsbad, Calif., USA) supplemented with 10% fetal bovine serum (FBS), 1% non-essential amino acid and Penicillin (100 u/mL) Streptomycin (100 ug/mL) in a humidified atmosphere of 5% CO2 and 95% air at 37° C. The culture mediums were changed every 2-3 days.
(§3) Anticancer activity of compound (24-29) (MTS assay). Cells (2,000-10,000) were seeded in 96 well plates in RPMI-1640 and incubated for 24 hours. The exponentially growing cancer cells were incubated with various concentrations of compounds for 72 hours at 37° C. (5% CO2, 95% humidity).

In a further experiment the test system is HT29. Briefly: Anticancer activity (MTS assay) in HT29 cells. The method, then: as §1, §2, §3
For experiment [2], the system named is K562. Briefly: Anticancer activity (MTS assay) in K562 cells. The following applies: 72 hours. Here is the method: as §1, §2, §3
A further experiment has as its system SW620. Briefly: Anticancer activity (MTS assay) in SW620 cells. The method, then: as §1, §2, §3
The next experiment relates to various cancer cells. Briefly: Anticancer activity (MTS assay), pooled statements on various cancer cells. The following applies: no added enzyme. Here is the method: as §1, §3
A further experiment concerns SW620, HT29 and K562. Briefly: Beta-galactosidase cleavage assay. The following applies: 2 units beta-galactosidase. The method, then: Thus, galactose-GA and lactose-GA conjugates were exposed to beta-galactosidase and observed for enhancement of anticancer activities. […] For compounds 25-29, 1 μM concentration of prodrug compounds were used. GA (0.01 μM), compound 24 (0.1 μM) and beta-galactosidase (2 units) was used in the cell culture. Each bar in the graphs shown is the average of three experiments. Relative percentage of cell growth was calculated compared to control cells in the absence of beta-galactosidase and drug solution. Cell lines SW620, HT29 and K562 were exposed to 2 units of beta-galactosidase and then treated individually with 1 μM of compounds 25-29. At this concentration, galactose-geldanamycin conjugates alone were relatively devoid of anticancer activity.
Beta-galactosidase cleavage assay. Cells (2,000-10,000) were seeded in 96 well plates in RPMI-1640 and incubated for 24 hours. The exponentially growing cancer cells were incubated with 2 units of beta-galactosidase for 10 minutes. The same concentration solutions of various compounds (25-29) were added to each well. The control cells were exposed to fresh medium only or to beta-galactosidase alone. After incubated for 72 hours at 37° C. (5% CO2, 100% humidity), the cell growth was measured with MTS assay as described above. The percentages of cell growth of tested compounds vs. control were calculated by measuring the absorbance at 490 nm.

For `OCC1NC(CO)C(O)C1O` (centres unmarked) [DMDP, 2,5-dihydroxymethyl-3,4-dihydroxypyrrolidine, reference compound], the “Effect on cell growth” value in the experiment with K562 [1] (DMDP alone) was “did not have any effect on cell growth”.
Regarding `COC1=C2C[C@@H](C)C[C@H](OC)[C@H](O)[C@@H](C)/C=C(\C)[C@H](OC(N)=O)[C@@H](OC)/C=C\C=C(/C)C(=O)NC(=CC1=O)C2=O` [GA, Geldanamycin, reference compound], the IC50 in the experiment on MCF7 (Homo sapiens) is 0.0065 µM; in the experiment on HT29 (Homo sapiens, HT-29, 72 hours), 0.0245 µM; in the experiment with K562 [2] (Homo sapiens) it was 0.0221 µM; with SW620 (Homo sapiens, SW-620, 72 hours), 0.0062 µM.
`COC1C=CC=C(C)C(=O)NC2=CC(=O)C(NCCOC3OC(CO)C(O)C(O)C3O)=C(CC(C)CC(OC)C(O)C(C)C=C(C)C1OC(N)=O)C2=O` (stereo not drawn) [compound 24, 17-demethoxy-17-[(2-β-glucopyranosylethyl)amino]geldanamycin]: the “Anticytostatic activity against tumor cells” value in the experiment with various cancer cells was “showed anticytostatic activity”. Moreover, the “Anticancer activity IC50 in various cancer cells” value in the experiment with various cancer cells (various cancer cells) is on record as “within the nanomolar range”. Besides, the IC50 in the experiment on various cancer cells (various cancer cells) is 0.0702 to 0.381 µM; with MCF7, 0.754 µM; in the experiment with HT29 (72 hours), 0.105 µM; in the experiment on K562 [2], 0.381 µM; with SW620 (72 hours), 0.07 µM and 0.0702 µM. In addition, the “Effect of beta-galactosidase treatment on activity” value in the experiment on SW620, HT29 and K562 is on record as “did not affect biological activity; also recorded: relatively unaffected”; in the experiment on SW620, HT29 and K562 (listed as glucose-GA) it was “not affected”. Also, the “Decrease of activity after treatment with DMDP” value with K562 [1] (DMDP 100 μM) was determined as 3 fold. In the experiment on K562 [1] (DMDP 100 μM, listed as glucose-GA), the “Effect of beta-glucosidase inhibitor DMDP on activity” value is given as “completely abolished”. In addition, the entries for the “Cell growth relative to untreated cells” value with K562 [1] (with beta-glucosidase inhibitor DMDP (100 μM)) and with K562 [1] (without DMDP) were “about 60%” and “about 20%”, respectively.
As for `COC1C=CC=C(C)C(=O)NC2=CC(=O)C(NCCOC3OC(CO)C(O)C(O)C3O)=C(CC(C)CC(OC)C(O)C(C)C=C(C)C1OC(N)=O)C2=O` (stereo not drawn) [compound 25, 17-demethoxy-17-[(2-β-galactopyranosylethyl)amino]geldanamycin], the IC50 in the experiment with MCF7 was greater than 25 µM; in the experiment with HT29 (72 hours) it was greater than 14 µM; in the experiment on K562 [2], greater than 23 µM. The “Effect of beta-glucosidase inhibitor DMDP on activity” value in the experiment on K562 [1] (DMDP 100 μM) is “did not affect; also recorded: relatively unaffected”.
With `COC1C=CC=C(C)C(=O)NC2=CC(=O)C(NCCCOC3OC(CO)C(O)C(O)C3O)=C(CC(C)CC(OC)C(O)C(C)C=C(C)C1OC(N)=O)C2=O` (centres unmarked) [compound 26], the IC50 in the experiment with MCF7 was greater than 12 µM; in the experiment with HT29 (72 hours), greater than 6 µM; with K562 [2], greater than 14 µM; in the experiment on SW620 (72 hours), greater than 14 µM.
`COC1C=CC=C(C)C(=O)NC2=CC(=O)C(NCCCCCOC3OC(CO)C(O)C(O)C3O)=C(CC(C)CC(OC)C(O)C(C)C=C(C)C1OC(N)=O)C2=O` (centres unmarked) [compound 27]: the half-inhibitory concentration (IC50) is greater than 17 µM in the experiment on MCF7, greater than 13 µM in the experiment with HT29 (72 hours), greater than 19 µM in the experiment with K562 [2] and greater than 13 µM in the experiment on SW620 (72 hours).
With `COC1C=CC=C(C)C(=O)NC2=CC(=O)C(NCCOCCOC3OC(CO)C(O)C(O)C3O)=C(CC(C)CC(OC)C(O)C(C)C=C(C)C1OC(N)=O)C2=O` (stereo not drawn) [compound 28, 17-demethoxy-17-{[2-(2-β-galactopyranosylethyl)ethyl]amino}geldanamycin], the half-maximal inhibitory concentration (IC50) is greater than 22 µM with MCF7, greater than 13 µM in the experiment with HT29 (72 hours), greater than 15 µM in the experiment with K562 [2] and greater than 11 µM in the experiment on SW620 (72 hours).
The like results for `COC1C=CC=C(C)C(=O)NC2=CC(=O)C(NCCOC3OC(CO)C(OC4OC(CO)C(O)C(O)C4O)C(O)C3O)=C(CC(C)CC(OC)C(O)C(C)C=C(C)C1OC(N)=O)C2=O` (stereo not drawn) [compound 29, 17-demethoxy-17-[(2-β-lactopyranosylethyl)amino]geldanamycin] were, in that order, greater than 22 µM, greater than 25 µM, greater than 25 µM and greater than 20 µM.
